The target in one assay is T1, Acetylcholinesterase (Rattus norvegicus, UniProt P37136).
T1 sequence (P37136 whole entry): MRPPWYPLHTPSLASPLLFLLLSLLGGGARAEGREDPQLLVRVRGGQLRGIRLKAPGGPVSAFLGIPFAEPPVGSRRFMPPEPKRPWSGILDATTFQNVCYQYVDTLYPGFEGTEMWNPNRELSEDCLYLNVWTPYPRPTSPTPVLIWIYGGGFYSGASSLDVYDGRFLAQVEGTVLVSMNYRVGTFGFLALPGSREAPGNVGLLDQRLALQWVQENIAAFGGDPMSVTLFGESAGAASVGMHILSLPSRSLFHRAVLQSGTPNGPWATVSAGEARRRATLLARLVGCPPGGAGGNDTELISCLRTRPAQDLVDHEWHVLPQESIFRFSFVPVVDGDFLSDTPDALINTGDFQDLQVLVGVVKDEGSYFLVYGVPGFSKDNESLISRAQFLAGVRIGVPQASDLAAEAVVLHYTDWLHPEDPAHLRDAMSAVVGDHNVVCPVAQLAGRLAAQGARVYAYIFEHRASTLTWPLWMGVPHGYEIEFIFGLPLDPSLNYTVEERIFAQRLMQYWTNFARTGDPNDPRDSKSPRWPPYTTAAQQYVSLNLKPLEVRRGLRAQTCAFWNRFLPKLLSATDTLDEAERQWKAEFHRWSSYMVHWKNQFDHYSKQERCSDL
Briefly: Inhibitory concentration against acetylcholinesterase of rat cortex homogenate.

For another assay, the target named is Butyrylcholinesterase (Rattus norvegicus, UniProt Q9JKC1). The assay is described as follows: Inhibitory concentration against butyrylcholinesterase of rat serum.
Sequence of Butyrylcholinesterase (Q9JKC1 whole entry): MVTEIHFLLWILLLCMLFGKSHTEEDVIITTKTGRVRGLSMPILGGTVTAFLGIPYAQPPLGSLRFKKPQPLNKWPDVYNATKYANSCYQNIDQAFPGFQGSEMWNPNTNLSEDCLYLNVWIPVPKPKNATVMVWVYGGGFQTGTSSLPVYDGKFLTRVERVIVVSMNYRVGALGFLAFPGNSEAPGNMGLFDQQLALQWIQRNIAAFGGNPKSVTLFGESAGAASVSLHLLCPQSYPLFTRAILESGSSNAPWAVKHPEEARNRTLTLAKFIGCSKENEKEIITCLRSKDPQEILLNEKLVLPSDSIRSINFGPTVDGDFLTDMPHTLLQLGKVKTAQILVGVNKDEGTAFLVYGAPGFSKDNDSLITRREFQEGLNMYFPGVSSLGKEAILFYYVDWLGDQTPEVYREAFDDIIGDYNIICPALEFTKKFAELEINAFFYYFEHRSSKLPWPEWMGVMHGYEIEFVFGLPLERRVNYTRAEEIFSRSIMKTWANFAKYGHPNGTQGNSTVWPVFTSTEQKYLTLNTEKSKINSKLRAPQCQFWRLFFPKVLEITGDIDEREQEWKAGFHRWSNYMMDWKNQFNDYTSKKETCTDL

The source of these data is ChEMBL document CHEMBL1141877 (J Med Chem, 2005).

For orientation: IC50 means the midpoint of a concentration-inhibition curve. Higher therefore signals lower potency.

Take `CC1=CC2Cc3[nH]c(=O)ccc3[C@@]3(C1)[C@@H]2CCCN3C(=O)CCN(C)CCCCCCN(C)CCC(=O)N1CCC[C@@H]2C3C=C(C)C[C@]21c1ccc(=O)[nH]c1C3`: the 50% inhibitory concentration (IC50) at Acetylcholinesterase came out at 0.0359 µM; on Butyrylcholinesterase, 67.9 µM.
`CC1=CC2Cc3[nH]c(=O)ccc3[C@@]3(C1)[C@@H]2CCCN3C(=O)CN(C)CCCCCCCCN(C)CC(=O)N1CCC[C@@H]2C3C=C(C)C[C@]21c1ccc(=O)[nH]c1C3`: the IC50 against Acetylcholinesterase turned out to be 0.0508 µM; against Butyrylcholinesterase, 65.4 µM.
Compound `CC1=CC2Cc3[nH]c(=O)ccc3[C@@]3(C1)[C@@H]2CCCN3C(=O)CN(C)CCN(C)CC(=O)N1CCC[C@@H]2C3C=C(C)C[C@]21c1ccc(=O)[nH]c1C3` [BIS(8)-HUPERZINE B] showed an IC50 against Acetylcholinesterase of 1.02 µM.
On to `CC1=CC2Cc3[nH]c(=O)ccc3[C@@]3(C1)[C@@H]2CCCN3C(=O)CN(C)CCCN(C)CC(=O)N1CCC[C@@H]2C3C=C(C)C[C@]21c1ccc(=O)[nH]c1C3` [BIS(9)-HUPERZINE B], for which the IC50 against Acetylcholinesterase amounted to 0.471 µM; on Butyrylcholinesterase it was 60 µM.
For `CC1=CC2Cc3[nH]c(=O)ccc3[C@@]3(C1)[C@@H]2CCCN3C(=O)CN(C)CCCCCCN(C)CC(=O)N1CCC[C@@H]2C3C=C(C)C[C@]21c1ccc(=O)[nH]c1C3` [BIS(12)-HUPERZINE B], in that order: 0.0762 µM and 64.5 µM.
As for `CC1=CC2Cc3[nH]c(=O)ccc3[C@@]3(C1)[C@@H]2CCCN3C(=O)CCN(C)CCCCCCCCN(C)CCC(=O)N1CCC[C@@H]2C3C=C(C)C[C@]21c1ccc(=O)[nH]c1C3` [BIS(16)-HUPERZINE B], the IC50 against Acetylcholinesterase was 0.0185 µM; at Butyrylcholinesterase it was 63 µM.
As to `CC1=CC2Cc3[nH]c(=O)ccc3[C@@]3(C1)[C@@H]2CCCN3C(=O)CCN(C)CCCCCCCCCCN(C)CCC(=O)N1CCC[C@@H]2C3C=C(C)C[C@]21c1ccc(=O)[nH]c1C3` [BIS(18)-HUPERZINE B], the half-inhibitory concentration (IC50) at Acetylcholinesterase stood at 0.00493 µM; on Butyrylcholinesterase it was 54.3 µM.
`CC1=CC2Cc3[nH]c(=O)ccc3[C@@]3(C1)[C@@H]2CCCN3C(=O)CCN(C)CCCCCCCCCCCCN(C)CCC(=O)N1CCC[C@@H]2C3C=C(C)C[C@]21c1ccc(=O)[nH]c1C3` [BIS(20)-HUPERZINE B]: the IC50 against Acetylcholinesterase is 0.0252 µM; on Butyrylcholinesterase, 88.4 µM.
Take `CC1=C[C@H]2Cc3[nH]c(=O)ccc3[C@]3(C1)NCCC[C@H]23` [HUPERZINE B]: the half-inhibitory concentration (IC50) against Acetylcholinesterase is 19.3 µM; against Butyrylcholinesterase it was 227 µM.
